Source: ChEMBL document CHEMBL3352036, “Identification of 4'-O-β-D-glucosyl-5-O-methylvisamminol as a novel epigenetic suppressor of histone H3 phosphorylation at Ser10 and its interaction with 14-3-3ε” (Bioorg Med Chem Lett, 2014)
Values belong to the compound of their own block, whether it stands above or below them. Calls of active or inactive are those of the source. The calls are words filed in the database; no cut-off is given here.

What was measured:
[1] = tested on: HT-29; experiment: Inhibition of histone H3 Ser10 phosphorylation in human HT-29 cells at 10 uM incubated for 1 hr by Western blotting method; assay type: functional, cell-based
[2] = molecular target: T1, 14-3-3 protein epsilon (Homo sapiens) (UniProt P62258); experiment: Inhibition of recombinant 14-3-3epsilon protein (unknown origin) expression in Escherichia coli assessed as reduction in 14-3-3epsilon and histone H3 Ser10 interaction using human HT-29 cells lysates at 1 uM incubated for 1 hr by Western blotting based GST-pull down assay
T1 sequence (whole entry): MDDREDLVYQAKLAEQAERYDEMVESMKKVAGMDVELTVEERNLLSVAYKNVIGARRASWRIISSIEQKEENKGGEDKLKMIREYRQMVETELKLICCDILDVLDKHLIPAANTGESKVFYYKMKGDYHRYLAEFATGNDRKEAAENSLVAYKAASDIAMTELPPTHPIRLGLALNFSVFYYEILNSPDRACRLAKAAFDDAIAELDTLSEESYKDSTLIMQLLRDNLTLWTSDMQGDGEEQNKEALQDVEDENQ

[3] = tested on: HT-29; experiment: Inhibition of 14-3-3epsilon protein expression in human HT-29 cells at 10 uM incubated for 1 to 4 hrs by Western blotting method; assay type: functional, cell-based
[4] = tested on: HT-29; experiment: Inhibition of c-Jun protein expression in human HT-29 cells at 10 uM incubated for 1 hr by Western blotting method; assay type: functional, cell-based
[5] = tested on: HT-29; experiment: Induction of cell cycle arrest in human HT-29 cells assessed as accumulation at subG1 phase at 10 uM incubated for 6 hrs by propidium iodide staining based FACS assay (reference value: 0.79%); assay type: functional
[6] = tested on: HT-29; experiment: Induction of cell cycle arrest in human HT-29 cells assessed as accumulation at G2/M phase at 10 uM incubated for 24 hrs by propidium iodide staining based FACS assay (reference value: 14.8%); assay type: functional
[7] = molecular target: T2, Aurora kinase C (Homo sapiens) (UniProt Q9UQB9); experiment: Inhibition of Aurora C kinase phosphorylation in human HT-29 cells at 10 uM incubated for 15 to 120 mins by Western blotting method; assay type: cell-based
T2 sequence (whole entry): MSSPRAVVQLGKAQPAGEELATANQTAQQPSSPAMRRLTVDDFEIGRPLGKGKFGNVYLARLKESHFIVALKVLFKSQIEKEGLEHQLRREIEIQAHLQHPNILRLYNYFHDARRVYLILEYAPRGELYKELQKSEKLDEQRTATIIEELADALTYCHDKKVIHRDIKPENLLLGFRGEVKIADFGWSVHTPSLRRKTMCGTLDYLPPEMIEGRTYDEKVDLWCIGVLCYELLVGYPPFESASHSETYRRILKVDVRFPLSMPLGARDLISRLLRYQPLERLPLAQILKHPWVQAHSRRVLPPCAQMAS

[8] = tested on: HT-29; experiment: Induction of cell cycle arrest in human HT-29 cells assessed as accumulation at subG1 phase at 10 uM incubated for 24 hrs by propidium iodide staining based FACS assay (reference value: 0.79%); assay type: functional
[9] = molecular target: Mitogen-activated protein kinase 9 (Homo sapiens) (UniProt P45984); experiment: Inhibition of JNK2 phosphorylation in human HT-29 cells at 10 uM incubated for 15 to 120 mins by Western blotting method; assay type: cell-based
Mitogen-activated protein kinase 9 (Homo sapiens), sequence (P45984 whole entry, looked up): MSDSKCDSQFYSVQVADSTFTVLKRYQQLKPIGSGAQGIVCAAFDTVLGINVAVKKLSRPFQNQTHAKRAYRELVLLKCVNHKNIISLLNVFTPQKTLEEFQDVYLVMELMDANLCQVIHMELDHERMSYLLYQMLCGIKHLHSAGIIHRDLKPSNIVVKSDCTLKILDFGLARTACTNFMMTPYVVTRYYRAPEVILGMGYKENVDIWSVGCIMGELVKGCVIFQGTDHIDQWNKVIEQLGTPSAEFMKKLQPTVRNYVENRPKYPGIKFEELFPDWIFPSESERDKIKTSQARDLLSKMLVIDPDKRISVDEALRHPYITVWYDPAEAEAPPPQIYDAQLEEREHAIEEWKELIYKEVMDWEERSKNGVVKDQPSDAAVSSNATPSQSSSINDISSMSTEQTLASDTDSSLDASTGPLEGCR

[10] = tested on: HT-29; experiment: Induction of cell cycle arrest in human HT-29 cells assessed as accumulation at S phase at 10 uM incubated for 6 hrs by propidium iodide staining based FACS assay (reference value: 21.94%); assay type: functional
[11] = tested on: HT-29; experiment: Induction of Nrf2 protein protein expression in human HT-29 cells at 10 uM incubated for 6 to 24 hrs by Western blotting method; assay type: functional, cell-based
[12] = tested on: HT-29; experiment: Induction of cell cycle arrest in human HT-29 cells assessed as accumulation at G0/G1 phase at 10 uM incubated for 6 hrs by propidium iodide staining based FACS assay (reference value: 60.39%); assay type: functional
[13] = tested on: HT-29; experiment: Toxicity against human HT-29 cells assessed as effect on cell viability at 10 uM incubated for 24 hrs by MTT assay; assay type: cell-based; conditions: ht-29, 24 h
[14] = molecular target: MAP kinase p38 (Homo sapiens) (UniProt O15264+Q15759+Q16539+P53778); experiment: Inhibition of p38 phosphorylation in human HT-29 cells at 10 uM incubated for 15 to 120 mins by Western blotting method; assay type: cell-based
[15] = tested on: HT-29; experiment: Induction of HO-1 protein protein expression in human HT-29 cells at 10 uM incubated for 6 to 24 hrs by Western blotting method; assay type: functional, cell-based
[16] = molecular target: Aurora kinase B (Homo sapiens) (UniProt Q96GD4); experiment: Inhibition of Aurora B kinase phosphorylation in human HT-29 cells at 10 uM incubated for 15 to 120 mins by Western blotting method; assay type: cell-based
Aurora kinase B (Homo sapiens), sequence (Q96GD4 whole entry): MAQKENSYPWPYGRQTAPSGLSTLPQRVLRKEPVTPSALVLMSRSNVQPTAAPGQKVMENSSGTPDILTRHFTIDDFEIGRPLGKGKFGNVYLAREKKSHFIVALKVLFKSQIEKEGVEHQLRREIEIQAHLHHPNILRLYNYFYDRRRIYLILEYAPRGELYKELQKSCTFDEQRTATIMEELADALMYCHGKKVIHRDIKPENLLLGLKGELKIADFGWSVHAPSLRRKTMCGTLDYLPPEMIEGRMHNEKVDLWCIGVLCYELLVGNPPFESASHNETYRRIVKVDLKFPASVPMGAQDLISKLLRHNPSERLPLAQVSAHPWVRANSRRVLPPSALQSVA

[17] = tested on: HT-29; experiment: Induction of cell cycle arrest in human HT-29 cells assessed as accumulation at S phase at 10 uM incubated for 24 hrs by propidium iodide staining based FACS assay (reference value: 21.94%); assay type: functional
[18] = molecular target: T3, Aurora kinase A (Homo sapiens) (UniProt O14965); experiment: Inhibition of Aurora A kinase phosphorylation in human HT-29 cells at 10 uM incubated for 15 to 120 mins by Western blotting method; assay type: cell-based
T3 sequence (whole entry): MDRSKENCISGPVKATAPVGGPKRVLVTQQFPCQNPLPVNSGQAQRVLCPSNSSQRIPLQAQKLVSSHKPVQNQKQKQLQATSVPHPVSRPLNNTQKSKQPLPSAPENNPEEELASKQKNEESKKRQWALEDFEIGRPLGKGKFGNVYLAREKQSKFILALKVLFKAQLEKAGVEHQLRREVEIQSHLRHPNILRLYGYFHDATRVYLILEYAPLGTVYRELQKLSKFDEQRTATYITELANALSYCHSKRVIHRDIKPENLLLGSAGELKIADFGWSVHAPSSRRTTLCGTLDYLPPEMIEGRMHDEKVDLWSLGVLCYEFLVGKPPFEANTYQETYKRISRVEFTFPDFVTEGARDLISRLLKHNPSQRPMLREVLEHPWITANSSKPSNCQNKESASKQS

[19] = tested on: HT-29; experiment: Induction of cell cycle arrest in human HT-29 cells assessed as accumulation at G2/M phase at 10 uM incubated for 6 hrs by propidium iodide staining based FACS assay (reference value: 14.8%); assay type: functional
[20] = molecular target: Mitogen-activated protein kinase 8 (Homo sapiens) (UniProt P45983); experiment: Inhibition of JNK1 phosphorylation in human HT-29 cells at 10 uM incubated for 15 to 120 mins by Western blotting method; assay type: cell-based
Mitogen-activated protein kinase 8 (Homo sapiens), sequence (P45983 whole entry): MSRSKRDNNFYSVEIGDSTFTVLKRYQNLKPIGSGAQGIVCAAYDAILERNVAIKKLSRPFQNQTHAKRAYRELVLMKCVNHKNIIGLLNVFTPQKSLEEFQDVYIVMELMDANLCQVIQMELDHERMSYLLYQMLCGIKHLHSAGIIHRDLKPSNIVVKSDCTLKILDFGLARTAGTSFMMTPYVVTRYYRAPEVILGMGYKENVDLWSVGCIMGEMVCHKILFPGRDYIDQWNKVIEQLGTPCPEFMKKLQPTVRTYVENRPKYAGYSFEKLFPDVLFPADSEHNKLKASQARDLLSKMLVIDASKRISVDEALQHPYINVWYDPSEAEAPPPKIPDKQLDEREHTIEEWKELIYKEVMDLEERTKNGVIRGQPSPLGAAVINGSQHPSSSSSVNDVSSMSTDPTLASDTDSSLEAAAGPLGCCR

[21] = tested on: HT-29; experiment: Induction of cell cycle arrest in human HT-29 cells assessed as accumulation at G0/G1 phase at 10 uM incubated for 24 hrs by propidium iodide staining based FACS assay (reference value: 60.39%); assay type: functional

inhibition [2]: inactive
SMILES: C[C@H]1[C@H](C)CC[C@]2(C)CC[C@]3(C)C(=CC[C@@H]4[C@@]5(C)CC[C@H](O)C(C)(C)[C@@H]5CC[C@]43C)[C@H]12
inhibition [1]: Active | inhibition [3]: inactive | inhibition [4]: Active

inhibition [7]: Active | inhibition [9]: Active | inhibition [2]: Active | inhibition [14]: inactive | inhibition [16]: Active | inhibition [18]: Active | inhibition [20]: Active
SMILES: COc1c2c(cc3oc(C)cc(=O)c13)OC(C(C)(C)O[C@H]1O[C@@H](CO)[C@H](O)[C@@H](O)[C@@H]1O)C2 (stereo partly drawn)
Activity [5]: 1.06% | Activity [6]: 22.29% | inhibition [1]: Active | Activity [8]: 0.88% | Activity [10]: 16.85% | Activity [11]: Active | Activity [12]: 58.61% | Activity [13]: Non-toxic | inhibition [3]: inactive | Activity [15]: Active | inhibition [4]: Active | Activity [17]: 15.97% | Activity [19]: 21.86% | Activity [21]: 59.07%

inhibition [2]: inactive
SMILES: CCCCCCCCCCCCC/C=C1/C(=O)O[C@H](C)[C@@H]1O
inhibition [1]: Active | inhibition [3]: inactive | inhibition [4]: Active

inhibition [2]: inactive
SMILES: CC1(C)CC[C@]2(C(=O)O)CC[C@]3(C)C(=CC[C@@H]4[C@@]5(C)CC[C@H](O)C(C)(C)[C@@H]5CC[C@]43C)[C@@H]2C1
inhibition [1]: Active | inhibition [3]: inactive | inhibition [4]: Active
